Earlier results on one molecule are cited in paper PMC4891020, “Preclinical evaluation of a nanoformulated antihelminthic, niclosamide, in ovarian cancer” (Oncotarget, 2016).

Values after ≈ are worked out from the molar mass of the structure shown.

Details of series [1]: method as in earlier work.

Take `O=C(Nc1ccc([N+](=O)[O-])cc1Cl)c1cc(Cl)ccc1O` [Niclosamide, niclosamide]: the “systemic bioavailability when administered orally” value is on record as approximately 10%. For the same molecule, the water solubility in series [1] is 0.23 µg/mL (≈ 0.703 µM).
